# According to PMC9937538 (Journal of Medicinal Chemistry, 2022):
# Counter-ions that a name gives are not always drawn.
# Target: hCA II (Homo sapiens, UniProt P00918)
# Test: CA inhibition, stopped-flow CO2 hydration assay
# Settings: not given
row,SMILES,Ki
1,"CC(C)NS(=O)(=O)c1ccc(OCCNCC2COc3ccccc3O2)cc1 (stereo not shown) [Compound 5, [((2-(4-Isopropylsulfonamidephenoxy)ethyl)amino)-methyl]-1,4-benzodioxane Hydrochloride]",> 10 µM

# Same assay, conditions: read-out: Ki CA II; stopped-flow technique, mean from three assays
row,SMILES,Ki
1,"CNS(=O)(=O)c1ccc(OCCNCC2COc3ccccc3O2)cc1 (stereo not shown) [Compound 2, [((2-(4-Methylsulfonamidephenoxy)ethyl)amino)-methyl]-1,4-benzodioxane Hydrochloride]",> 10 µM
2,"N[C@@H](CC(=O)N1CCn2c(nnc2C(F)(F)F)C1)Cc1cc(F)c(F)cc1F [Sitagliptin, reference compound]",> 10 µM
3,"COc1cccc(OC)c1OCCNCC1COc2ccccc2O1 (stereo not shown) [WB-4101, 2-[(2,6-dimethoxyphenoxyethyl)aminomethyl]-1,4-benzodioxane, reference compound]",> 10 µM
4,"CCS(=O)(=O)Nc1ccc(OCCNCC2COc3ccccc3O2)cc1 (stereo not shown) [Compound 7, [((2-(4-Ethylsulfonylamidephenoxy)ethyl)amino)-methyl]-1,4-benzodioxane Hydrochloride]",> 10 µM
5,"CCNS(=O)(=O)c1ccc(OCCNCC2COc3ccccc3O2)cc1 (stereo not shown) [Compound 3, [((2-(4-Ethylsulfonamidephenoxy)ethyl)amino)-methyl]-1,4-benzodioxane Hydrochloride]",> 10 µM
6,"CC(C)CS(=O)(=O)Nc1ccc(OCCNCC2COc3ccccc3O2)cc1 (stereo not shown) [Compound 8, [((2-(4-Isobutylsulfanilaminophenoxy)ethyl)amino)-methyl]-1,4-benzodioxane Hydrochloride]",> 10 µM

# Target: hCA VA (Homo sapiens, UniProt P35218)
# Test: CA inhibition, stopped-flow CO2 hydration assay
# Settings: not given
# Chain of hCA VA (P35218 39-305): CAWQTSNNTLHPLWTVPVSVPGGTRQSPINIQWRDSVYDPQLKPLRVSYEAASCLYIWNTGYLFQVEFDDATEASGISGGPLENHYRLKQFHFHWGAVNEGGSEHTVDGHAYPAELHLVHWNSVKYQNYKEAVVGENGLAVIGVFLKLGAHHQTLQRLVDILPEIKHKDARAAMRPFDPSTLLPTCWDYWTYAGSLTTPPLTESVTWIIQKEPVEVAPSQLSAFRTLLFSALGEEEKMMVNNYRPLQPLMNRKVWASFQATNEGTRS
row,SMILES,Ki
1,"CC(C)NS(=O)(=O)c1ccc(OCCNCC2COc3ccccc3O2)cc1 (stereo not shown) [Compound 5, [((2-(4-Isopropylsulfonamidephenoxy)ethyl)amino)-methyl]-1,4-benzodioxane Hydrochloride]",> 10 µM

# Same assay, conditions: read-out: Ki CA VA; stopped-flow technique, mean from three assays
row,SMILES,Ki
1,"CNS(=O)(=O)c1ccc(OCCNCC2COc3ccccc3O2)cc1 (stereo not shown) [Compound 2, [((2-(4-Methylsulfonamidephenoxy)ethyl)amino)-methyl]-1,4-benzodioxane Hydrochloride]",> 10 µM
2,"N[C@@H](CC(=O)N1CCn2c(nnc2C(F)(F)F)C1)Cc1cc(F)c(F)cc1F [Sitagliptin, reference compound]",> 10 µM
3,"COc1cccc(OC)c1OCCNCC1COc2ccccc2O1 (stereo not shown) [WB-4101, 2-[(2,6-dimethoxyphenoxyethyl)aminomethyl]-1,4-benzodioxane, reference compound]",> 10 µM
4,"CCS(=O)(=O)Nc1ccc(OCCNCC2COc3ccccc3O2)cc1 (stereo not shown) [Compound 7, [((2-(4-Ethylsulfonylamidephenoxy)ethyl)amino)-methyl]-1,4-benzodioxane Hydrochloride]",> 10 µM
5,"CCNS(=O)(=O)c1ccc(OCCNCC2COc3ccccc3O2)cc1 (stereo not shown) [Compound 3, [((2-(4-Ethylsulfonamidephenoxy)ethyl)amino)-methyl]-1,4-benzodioxane Hydrochloride]",> 10 µM
6,"CC(C)CS(=O)(=O)Nc1ccc(OCCNCC2COc3ccccc3O2)cc1 (stereo not shown) [Compound 8, [((2-(4-Isobutylsulfanilaminophenoxy)ethyl)amino)-methyl]-1,4-benzodioxane Hydrochloride]",> 10 µM

# Target: hCA I (Homo sapiens, UniProt P00915)
# Test: CA inhibition, stopped-flow CO2 hydration assay
# Settings: not given
# Chain of hCA I (P00915 whole entry): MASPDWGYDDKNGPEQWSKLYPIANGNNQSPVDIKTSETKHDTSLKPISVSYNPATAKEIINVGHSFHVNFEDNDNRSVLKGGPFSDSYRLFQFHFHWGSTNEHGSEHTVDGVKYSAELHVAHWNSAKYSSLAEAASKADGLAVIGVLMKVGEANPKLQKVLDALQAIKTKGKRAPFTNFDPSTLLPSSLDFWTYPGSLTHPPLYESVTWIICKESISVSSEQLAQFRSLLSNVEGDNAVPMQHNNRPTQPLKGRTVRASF
row,SMILES,Ki
1,"CC(C)NS(=O)(=O)c1ccc(OCCNCC2COc3ccccc3O2)cc1 (stereo not shown) [Compound 5, [((2-(4-Isopropylsulfonamidephenoxy)ethyl)amino)-methyl]-1,4-benzodioxane Hydrochloride]",> 10 µM

# Same assay, conditions: read-out: Ki CA I; stopped-flow technique, mean from three assays
row,SMILES,Ki
1,"CNS(=O)(=O)c1ccc(OCCNCC2COc3ccccc3O2)cc1 (stereo not shown) [Compound 2, [((2-(4-Methylsulfonamidephenoxy)ethyl)amino)-methyl]-1,4-benzodioxane Hydrochloride]",> 10 µM
2,"N[C@@H](CC(=O)N1CCn2c(nnc2C(F)(F)F)C1)Cc1cc(F)c(F)cc1F [Sitagliptin, reference compound]",> 10 µM
3,"COc1cccc(OC)c1OCCNCC1COc2ccccc2O1 (stereo not shown) [WB-4101, 2-[(2,6-dimethoxyphenoxyethyl)aminomethyl]-1,4-benzodioxane, reference compound]",> 10 µM
4,"CCS(=O)(=O)Nc1ccc(OCCNCC2COc3ccccc3O2)cc1 (stereo not shown) [Compound 7, [((2-(4-Ethylsulfonylamidephenoxy)ethyl)amino)-methyl]-1,4-benzodioxane Hydrochloride]",> 10 µM
5,"CCNS(=O)(=O)c1ccc(OCCNCC2COc3ccccc3O2)cc1 (stereo not shown) [Compound 3, [((2-(4-Ethylsulfonamidephenoxy)ethyl)amino)-methyl]-1,4-benzodioxane Hydrochloride]",> 10 µM
6,"CC(C)CS(=O)(=O)Nc1ccc(OCCNCC2COc3ccccc3O2)cc1 (stereo not shown) [Compound 8, [((2-(4-Isobutylsulfanilaminophenoxy)ethyl)amino)-methyl]-1,4-benzodioxane Hydrochloride]",> 10 µM

# Target: hCA IV (Homo sapiens, UniProt P22748)
# Test: CA inhibition, stopped-flow CO2 hydration assay
# Settings: not given
# Chain of hCA IV (P22748 19-312): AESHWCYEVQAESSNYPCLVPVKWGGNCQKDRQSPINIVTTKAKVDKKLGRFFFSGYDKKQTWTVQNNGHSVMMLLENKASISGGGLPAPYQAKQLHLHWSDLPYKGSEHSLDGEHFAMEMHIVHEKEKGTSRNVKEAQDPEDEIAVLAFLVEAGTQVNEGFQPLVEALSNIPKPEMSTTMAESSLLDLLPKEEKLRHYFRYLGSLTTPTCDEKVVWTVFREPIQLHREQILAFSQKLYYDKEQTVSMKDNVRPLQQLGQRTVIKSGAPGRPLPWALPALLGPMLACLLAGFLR
row,SMILES,Ki
1,"CC(C)NS(=O)(=O)c1ccc(OCCNCC2COc3ccccc3O2)cc1 (stereo not shown) [Compound 5, [((2-(4-Isopropylsulfonamidephenoxy)ethyl)amino)-methyl]-1,4-benzodioxane Hydrochloride]",> 10 µM

# Same assay, conditions: read-out: Ki CA IV; stopped-flow technique, mean from three assays
row,SMILES,Ki
1,"CNS(=O)(=O)c1ccc(OCCNCC2COc3ccccc3O2)cc1 (stereo not shown) [Compound 2, [((2-(4-Methylsulfonamidephenoxy)ethyl)amino)-methyl]-1,4-benzodioxane Hydrochloride]",> 10 µM
2,"N[C@@H](CC(=O)N1CCn2c(nnc2C(F)(F)F)C1)Cc1cc(F)c(F)cc1F [Sitagliptin, reference compound]",> 10 µM
3,"COc1cccc(OC)c1OCCNCC1COc2ccccc2O1 (stereo not shown) [WB-4101, 2-[(2,6-dimethoxyphenoxyethyl)aminomethyl]-1,4-benzodioxane, reference compound]",> 10 µM
4,"CCS(=O)(=O)Nc1ccc(OCCNCC2COc3ccccc3O2)cc1 (stereo not shown) [Compound 7, [((2-(4-Ethylsulfonylamidephenoxy)ethyl)amino)-methyl]-1,4-benzodioxane Hydrochloride]",> 10 µM
5,"CCNS(=O)(=O)c1ccc(OCCNCC2COc3ccccc3O2)cc1 (stereo not shown) [Compound 3, [((2-(4-Ethylsulfonamidephenoxy)ethyl)amino)-methyl]-1,4-benzodioxane Hydrochloride]",> 10 µM
6,"CC(C)CS(=O)(=O)Nc1ccc(OCCNCC2COc3ccccc3O2)cc1 (stereo not shown) [Compound 8, [((2-(4-Isobutylsulfanilaminophenoxy)ethyl)amino)-methyl]-1,4-benzodioxane Hydrochloride]",> 10 µM

# Target: hCA IX (Homo sapiens, UniProt Q16790)
# Test: CA inhibition, stopped-flow CO2 hydration assay
# Settings: not given
row,SMILES,Ki
1,"CC(C)NS(=O)(=O)c1ccc(OCCNCC2COc3ccccc3O2)cc1 (stereo not shown) [Compound 5, [((2-(4-Isopropylsulfonamidephenoxy)ethyl)amino)-methyl]-1,4-benzodioxane Hydrochloride]",> 10 µM

# Same assay, conditions: read-out: Ki CA IX; stopped-flow technique, mean from three assays
row,SMILES,Ki
1,"CNS(=O)(=O)c1ccc(OCCNCC2COc3ccccc3O2)cc1 (stereo not shown) [Compound 2, [((2-(4-Methylsulfonamidephenoxy)ethyl)amino)-methyl]-1,4-benzodioxane Hydrochloride]",> 10 µM
2,"N[C@@H](CC(=O)N1CCn2c(nnc2C(F)(F)F)C1)Cc1cc(F)c(F)cc1F [Sitagliptin, reference compound]",> 10 µM
3,"COc1cccc(OC)c1OCCNCC1COc2ccccc2O1 (stereo not shown) [WB-4101, 2-[(2,6-dimethoxyphenoxyethyl)aminomethyl]-1,4-benzodioxane, reference compound]",> 10 µM
4,"CCS(=O)(=O)Nc1ccc(OCCNCC2COc3ccccc3O2)cc1 (stereo not shown) [Compound 7, [((2-(4-Ethylsulfonylamidephenoxy)ethyl)amino)-methyl]-1,4-benzodioxane Hydrochloride]",> 10 µM
5,"CCNS(=O)(=O)c1ccc(OCCNCC2COc3ccccc3O2)cc1 (stereo not shown) [Compound 3, [((2-(4-Ethylsulfonamidephenoxy)ethyl)amino)-methyl]-1,4-benzodioxane Hydrochloride]",> 10 µM
6,"CC(C)CS(=O)(=O)Nc1ccc(OCCNCC2COc3ccccc3O2)cc1 (stereo not shown) [Compound 8, [((2-(4-Isobutylsulfanilaminophenoxy)ethyl)amino)-methyl]-1,4-benzodioxane Hydrochloride]",> 10 µM

# Target: T1, purified recombinant human DPP IV (Homo sapiens, UniProt P27487)
# T1 construct: purchased Cayman Chemicals (Michigan)
# Test: In vitro DPP IV activity assay (fluorogenic Gly-Pro-AMC substrate)
# Format: biochemical
# Settings: not given
# Protocol: The DPP IV inhibition activities of the entire sets of compounds were carried out on purified recombinant human DPP IV using conditions previously optimized.[35]
# Four independent in vitro experiments were carried out, and each of those was performed in triplicate in a white half-volume 96-well solid plate. […] Afterward, the samples were mixed and 50 μL was transferred to each plate well. Each reaction was started by adding 50 μL of the substrate solution (200 μM H-Gly-Pro-7-amido-4-methylcoumarin (AMC)) to each well and incubated at 37 °C for 30 min. […] The DPP IV enzyme and the substrate solution were provided by Cayman Chemicals (Michigan).
# T1 sequence (P27487 whole entry): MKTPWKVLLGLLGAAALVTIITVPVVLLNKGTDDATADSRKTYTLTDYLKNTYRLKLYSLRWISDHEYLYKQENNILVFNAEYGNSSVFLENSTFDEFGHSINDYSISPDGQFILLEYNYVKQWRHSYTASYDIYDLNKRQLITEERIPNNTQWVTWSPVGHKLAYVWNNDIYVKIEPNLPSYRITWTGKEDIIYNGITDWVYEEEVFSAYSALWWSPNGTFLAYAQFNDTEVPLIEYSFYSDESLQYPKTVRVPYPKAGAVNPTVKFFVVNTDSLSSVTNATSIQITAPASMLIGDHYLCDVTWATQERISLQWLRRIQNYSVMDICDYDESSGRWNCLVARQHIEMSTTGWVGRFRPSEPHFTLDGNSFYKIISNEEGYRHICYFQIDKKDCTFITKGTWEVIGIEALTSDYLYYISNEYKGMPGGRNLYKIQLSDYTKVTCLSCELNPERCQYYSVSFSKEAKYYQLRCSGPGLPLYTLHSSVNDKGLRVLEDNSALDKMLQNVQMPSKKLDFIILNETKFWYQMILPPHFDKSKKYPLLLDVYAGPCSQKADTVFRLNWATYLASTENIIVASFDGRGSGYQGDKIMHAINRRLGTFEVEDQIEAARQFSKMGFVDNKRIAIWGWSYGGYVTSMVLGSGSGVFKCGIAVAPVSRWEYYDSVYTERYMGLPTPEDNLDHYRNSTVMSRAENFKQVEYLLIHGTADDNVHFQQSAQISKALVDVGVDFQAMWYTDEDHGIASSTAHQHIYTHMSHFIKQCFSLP
row,SMILES,IC50
1,"COc1cccc(OC)c1OCCNCC1COc2ccccc2O1 (stereo not shown) [WB-4101, 2-[(2,6-dimethoxyphenoxyethyl)aminomethyl]-1,4-benzodioxane, reference compound]",> 700 µM

# Target: hCA VB (Homo sapiens, UniProt Q9Y2D0)
# Test: CA inhibition, stopped-flow CO2 hydration assay
# Settings: not given
# Chain of hCA VB (Q9Y2D0 34-317): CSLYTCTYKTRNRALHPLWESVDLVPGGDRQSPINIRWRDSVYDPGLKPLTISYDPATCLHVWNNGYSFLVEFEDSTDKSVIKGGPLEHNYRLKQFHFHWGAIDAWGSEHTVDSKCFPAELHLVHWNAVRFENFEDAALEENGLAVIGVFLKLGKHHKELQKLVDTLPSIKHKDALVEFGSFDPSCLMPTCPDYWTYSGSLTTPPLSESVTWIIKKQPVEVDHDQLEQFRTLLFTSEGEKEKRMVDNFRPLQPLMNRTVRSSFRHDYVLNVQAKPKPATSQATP
row,SMILES,Ki
1,"CC(C)NS(=O)(=O)c1ccc(OCCNCC2COc3ccccc3O2)cc1 (stereo not shown) [Compound 5, [((2-(4-Isopropylsulfonamidephenoxy)ethyl)amino)-methyl]-1,4-benzodioxane Hydrochloride]",> 10 µM

# Same assay, conditions: read-out: Ki CA VB; stopped-flow technique, mean from three assays
row,SMILES,Ki
1,"CNS(=O)(=O)c1ccc(OCCNCC2COc3ccccc3O2)cc1 (stereo not shown) [Compound 2, [((2-(4-Methylsulfonamidephenoxy)ethyl)amino)-methyl]-1,4-benzodioxane Hydrochloride]",> 10 µM
2,"N[C@@H](CC(=O)N1CCn2c(nnc2C(F)(F)F)C1)Cc1cc(F)c(F)cc1F [Sitagliptin, reference compound]",> 10 µM
3,"COc1cccc(OC)c1OCCNCC1COc2ccccc2O1 (stereo not shown) [WB-4101, 2-[(2,6-dimethoxyphenoxyethyl)aminomethyl]-1,4-benzodioxane, reference compound]",> 10 µM
4,"CCS(=O)(=O)Nc1ccc(OCCNCC2COc3ccccc3O2)cc1 (stereo not shown) [Compound 7, [((2-(4-Ethylsulfonylamidephenoxy)ethyl)amino)-methyl]-1,4-benzodioxane Hydrochloride]",> 10 µM
5,"CCNS(=O)(=O)c1ccc(OCCNCC2COc3ccccc3O2)cc1 (stereo not shown) [Compound 3, [((2-(4-Ethylsulfonamidephenoxy)ethyl)amino)-methyl]-1,4-benzodioxane Hydrochloride]",> 10 µM
6,"CC(C)CS(=O)(=O)Nc1ccc(OCCNCC2COc3ccccc3O2)cc1 (stereo not shown) [Compound 8, [((2-(4-Isobutylsulfanilaminophenoxy)ethyl)amino)-methyl]-1,4-benzodioxane Hydrochloride]",> 10 µM
